Source: patent publication US20160280641A1, “Method for refining 2-nito-4-methylsulfonyl benzoic acid and intermediate thereof” (priority 2013, published 2016)

Assay: Ames test of mesotrione products
Format: cell-based
Settings: mesotrione products made from the fine 2-nitro-4-methylsulfonyl benzoic acids obtained by different processes
Experimental: The fine 2-nitro-4-methylsulfonyl benzoic acids obtained by different processes are transformed into mesotrione products, and activities thereof are tested in Ames tests, wherein Ames responses are negative.

SMILES: CS(=O)(=O)c1ccc(C(=O)C2C(=O)CCCC2=O)c([N+](=O)[O-])c1 [mesotrione, 2-(4-methanesulfonyl-2-nitrobenzoyl)-1,3-cyclohexanedione]
- Ames responses: negative
